Assay [1] concerns the target recombinant human baculovirus-expressed cMET (Homo sapiens (Human), UniProt P08581). The assay can be described thus: C-MET Kinase Assay (HTRF KinEASE). To be noted: average of two or more determinations; read-out: c-MET IC50. The class given is biochemical. Summed up: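 HTRF KinEASE format with recombinant human baculovirus-expressed cMET at 8 ng/mL, biotinylated peptide at 0.1 μM and ATP at 0.02 μM. IC50 came from percent control activity versus log concentration, fitted by nonlinear regression to a variable-slope sigmoidal equation with bottom fixed at 0 and top at 100.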

Assay [2] concerns the target recombinant human baculovirus-expressed AXL (Homo sapiens (Human), UniProt P30530). The assay is described as follows: AXL Kinase Assay (HTRF KinEASE). The note with it: average of two or more determinations. The class given is biochemical.

Molecules are shown by their SMILES. pIC50: −log10 of the molar value.

For `COc1cc2nccc(Oc3ccc(NC(=O)c4cn(CCC5OCCO5)c(=O)n(-c5ccc(F)cc5)c4=O)cc3F)c2cc1OC` [Example 65, 1-[2-(1,3-Dioxolan-2-yl-ethyl)]-3-(4-fluoro-phenyl)-2,4-dioxo-1,2,3,4-tetrahydro-pyrimidine-5-carboxylic acid [4-(6,7-dimethoxy-quinolin-4-yloxy)-3-fluoro-phenyl]-amide], the pIC50 in assay [1] was 7.00 to 8.00; in assay [2], above 8.00.
The corresponding values for `CCN(CC)C(=O)Cn1cc(C(=O)Nc2ccc(Oc3ccnc4cc(OC)c(OC)cc34)c(F)c2)c(=O)n(-c2ccc(F)cc2)c1=O` [Example 66, 1-Diethylcarbamoylmethyl-3-(4-fluoro-phenyl)-2,4-dioxo-1,2,3,4-tetrahydro-pyrimidine-5-carboxylic acid [4-(6,7-dimethoxy-quinolin-4-yloxy)-3-fluoro-phenyl]-amide] are above 8.00 and above 8.00.
Taken in the same sequence, the figures for `COc1cc2nccc(Oc3ccc(NC(=O)c4cn(CC(=O)N5CCOCC5)c(=O)n(-c5ccc(F)cc5)c4=O)cc3F)c2cc1OC` [Example 67, 3-(4-Fluoro-phenyl)-1-(2-morpholin-4-yl-2-oxo-ethyl)-2,4-dioxo-1,2,3,4-tetrahydro-pyrimidine-5-carboxylic acid [4-(6,7-dimethoxy-quinolin-4-yloxy)-3-fluoro-phenyl]-amide] were 7.00 to 8.00 and above 8.00.
Taken in the same sequence, the figures for `COc1cc2nccc(Oc3ccc(NC(=O)c4cn(CCN5CCCC5=O)c(=O)n(-c5ccc(F)cc5)c4=O)cc3F)c2cc1OC` [Example 68, 3-(4-Fluoro-phenyl)-2,4-dioxo-1-[2-(2-oxo-pyrrolidin-1-yl)-ethyl]-1,2,3,4-tetrahydro-pyrimidine-5-carboxylic acid [4-(6,7-dimethoxy-quinolin-4-yloxy)-3-fluoro-phenyl]-amide] were above 8.00 and above 8.00.
Regarding `COc1cc2nccc(Oc3ccc(NC(=O)c4cn(CCF)c(=O)n(-c5ccc(F)cc5)c4=O)cc3F)c2cc1OC` [Example 69, 1-(2-Fluoro-ethyl)-3-(4-fluoro-phenyl)-2,4-dioxo-1,2,3,4-tetrahydro-pyrimidine-5-carboxylic acid [4-(6,7-dimethoxy-quinolin-4-yloxy)-3-fluoro-phenyl]-amide], the pIC50 in assay [1] and in assay [2] was above 8.00 in each case.
`COc1cc2nccc(Oc3ccc(NC(=O)c4cn(CC(=O)O)c(=O)n(-c5ccc(F)cc5)c4=O)cc3F)c2cc1OC` [Example 71, [5-[4-(6,7-Dimethoxyquinolin-4-yloxy)-3-fluorophenylcarbamoyl]-3-(4-fluorophenyl)-2,4-dioxo-3,4-dihydro-2H-pyrimidin-1-yl]-acetic acid]: the pIC50 in assay [1] and in assay [2] was above 8.00 in each case.
Take `COc1cc2nccc(Oc3ccc(NC(=O)c4cn(Cc5ncco5)c(=O)n(-c5ccc(F)cc5)c4=O)cc3F)c2cc1OC` [Example 72, 3-(4-Fluoro-phenyl)-1-oxazol-2-ylmethyl-2,4-dioxo-1,2,3,4-tetrahydro-pyrimidine-5-carboxylic acid [4-(6,7-dimethoxy-quinolin-4-yloxy)-3-fluoro-phenyl]-amide]: the results for the pIC50 in assay [1] and in assay [2] were 7.00 to 8.00 and above 8.00, respectively.
On to `COc1cc2nccc(Oc3ccc(NC(=O)c4cn(CC5CCCO5)c(=O)n(-c5ccc(F)cc5)c4=O)cc3F)c2cc1OC` (centres unmarked) [Example 73, 3-(4-Fluoro-phenyl)-2,4-dioxo-1-(tetrahydro-furan-2-ylmethyl)-1,2,3,4-tetrahydro-pyrimidine-5-carboxylic acid [4-(6,7-dimethoxy-quinolin-4-yloxy)-3-fluoro-phenyl]-amide], for which the pIC50 in assay [1] is 7.00 to 8.00; in assay [2] it was above 8.00.
As to `COc1cc2nccc(Oc3ccc(NC(=O)c4cn(CC5CCOCC5)c(=O)n(-c5ccc(F)cc5)c4=O)cc3F)c2cc1OC` [Example 74, 3-(4-Fluoro-phenyl)-2,4-dioxo-1-(tetrahydro-pyran-4-ylmethyl)-1,2,3,4-tetrahydro-pyrimidine-5-carboxylic acid [4-(6,7-dimethoxy-quinolin-4-yloxy)-3-fluoro-phenyl]-amide], the results for the pIC50 in assay [1] and in assay [2] were 7.00 to 8.00 and above 8.00, respectively.
Take `COc1cc2nccc(Oc3ccc(NC(=O)c4cn(Cc5ccccc5)c(=O)n(-c5ccc(F)cc5)c4=O)cc3F)c2cc1OC` [Example 77, 1-Benzyl-3-(4-fluoro-phenyl)-2,4-dioxo-1,2,3,4-tetrahydro-pyrimidine-5-carboxylic acid [4-(6,7-dimethoxy-quinolin-4-yloxy)-3-fluoro-phenyl]-amide]: the pIC50 in assay [1] was 7.00 to 8.00; in assay [2], above 8.00.
The corresponding values for `COc1cc2nccc(Oc3ccc(NC(=O)c4cn(CCc5ccccc5F)c(=O)n(-c5ccc(F)cc5)c4=O)cc3F)c2cc1OC` [Example 78, 3-(4-Fluoro-phenyl)-1-[2-(2-fluoro-phenyl)-ethyl]-2,4-dioxo-1,2,3,4-tetrahydro-pyrimidine-5-carboxylic acid [4-(6,7-dimethoxy-quinolin-4-yloxy)-3-fluoro-phenyl]-amide] are 7.00 to 8.00 and above 8.00.
The corresponding values for `COc1cc2nccc(Oc3ccc(NC(=O)c4cn(CCc5ccc(F)cc5)c(=O)n(-c5ccc(F)cc5)c4=O)cc3F)c2cc1OC` [Example 79, 3-(4-Fluoro-phenyl)-1-[2-(4-fluoro-phenyl)-ethyl]-2,4-dioxo-1,2,3,4-tetrahydro-pyrimidine-5-carboxylic acid [4-(6,7-dimethoxy-quinolin-4-yloxy)-3-fluoro-phenyl]-amide] are 7.00 to 8.00 and above 8.00.
Taken in the same sequence, the figures for `COc1cc2nccc(Oc3ccc(NC(=O)c4cn(CC(=O)N5CCCC5)c(=O)n(-c5ccc(F)cc5)c4=O)cc3F)c2cc1OC` [Example 82, 3-(4-Fluoro-phenyl)-2,4-dioxo-1-(2-oxo-2-pyrrolidin-1-yl-ethyl)-1,2,3,4-tetrahydro-pyrimidine-5-carboxylic acid [4-(6,7-dimethoxy-quinolin-4-yloxy)-3-fluoro-phenyl]-amide] were 7.00 to 8.00 and above 8.00.
For `COc1cc2nccc(Oc3ccc(NC(=O)c4cn(CC(=O)N(C)C)c(=O)n(-c5ccc(F)cc5)c4=O)cc3F)c2cc1OC` [Example 83, 1-Dimethylcarbamoylmethyl-3-(4-fluorophenyl)-2,4-dioxo-1,2,3,4-tetrahydro-pyrimidine-5-carboxylic acid [4-(6,7-dimethoxy-quinolin-4-yloxy)-3-fluorophenyl]-amide], the results for the pIC50 in assay [1] and in assay [2] were 7.00 to 8.00 and above 8.00, respectively.
Taken in the same sequence, the figures for `COc1cc2nccc(Oc3ccc(NC(=O)c4c[nH]c(=O)n(-c5ccc(F)cc5)c4=O)c(F)c3)c2cc1OC` [Example 85, 3-(4-Fluoro-phenyl)-2,4-dioxo-1,2,3,4-tetrahydro-pyrimidine-5-carboxylic acid [4-(6,7-dimethoxy-quinolin-4-yloxy)-2-fluoro-phenyl]-amide] were above 8.00 and above 8.00.
The corresponding values for `COc1cc2nccc(Oc3ccc(NC(=O)c4cn(C)c(=O)n(-c5ccc(F)cc5)c4=O)c(F)c3)c2cc1OC` [Example 86, 3-(4-Fluoro-phenyl)-1-methyl-2,4-dioxo-1,2,3,4-tetrahydro-pyrimidine-5-carboxylic acid [4-(6,7-dimethoxy-quinolin-4-yloxy)-2-fluoro-phenyl]-amide] are 7.00 to 8.00 and above 8.00.
Taken in the same sequence, the figures for `CCn1cc(C(=O)Nc2ccc(Oc3ccnc4cc(OC)c(OC)cc34)cc2F)c(=O)n(-c2ccc(F)cc2)c1=O` [Example 87, 1-Ethyl-3-(4-fluoro-phenyl)-2,4-dioxo-1,2,3,4-tetrahydro-pyrimidine-5-carboxylic acid [4-(6,7-dimethoxy-quinolin-4-yloxy)-2-fluoro-phenyl]-amide] were 7.00 to 8.00 and above 8.00.
For `C=CCn1cc(C(=O)Nc2ccc(Oc3ccnc4cc(OC)c(OC)cc34)cc2F)c(=O)n(-c2ccc(F)cc2)c1=O` [Example 88, 1-Allyl-3-(4-fluoro-phenyl)-2,4-dioxo-1,2,3,4-tetrahydro-pyrimidine-5-carboxylic acid [4-(6,7-dimethoxy-quinolin-4-yloxy)-2-fluoro-phenyl]-amide], the pIC50 is 7.00 to 8.00 in assay [1] and above 8.00 in assay [2].
In the case of `CCn1cc(C(=O)Nc2cc(F)c(Oc3ccnc4cc(OC)c(OC)cc34)c(F)c2)c(=O)n(-c2ccc(F)cc2)c1=O` [Example 90, 1-Ethyl-3-(4-fluoro-phenyl)-2,4-dioxo-1,2,3,4-tetrahydro-pyrimidine-5-carboxylic acid [4-(6,7-dimethoxy-quinolin-4-yloxy)-3,5-difluoro-phenyl]-amide], the pIC50 in assay [1] is 7.00 to 8.00; in assay [2], above 8.00.
The corresponding values for `CCn1c(=O)c(C(=O)Nc2ccc(Oc3ccnc4cc(OC)c(OC)cc34)c(F)c2)cn(-c2ccc(F)cc2)c1=O` [Example 91, 3-Ethyl-1-(4-fluoro-phenyl)-2,4-dioxo-1,2,3,4-tetrahydro-pyrimidine-5-carboxylic acid [4-(6,7-dimethoxy-quinolin-4-yloxy)-3-fluoro-phenyl]-amide] are 7.00 to 8.00 and above 8.00.
The corresponding values for `CCn1cc(C(=O)Nc2ccc(Oc3ccnc4cc(OC)c(OC)cc34)c(F)c2)c(=O)n(-c2ccccc2)c1=O` [Example 100, 1-Ethyl-2,4-dioxo-3-phenyl-1,2,3,4-tetrahydro-pyrimidine-5-carboxylic acid [4-(6,7-dimethoxy-quinolin-4-yloxy)-3-fluoro-phenyl]-amide] are 7.00 to 8.00 and above 8.00.
The corresponding values for `COc1cc2nccc(Oc3ccc(NC(=O)c4cn(C(C)C)c(=O)n(-c5ccccc5)c4=O)cc3F)c2cc1OC` [Example 101, 1-Isopropyl-2,4-dioxo-3-phenyl-1,2,3,4-tetrahydro-pyrimidine-5-carboxylic acid [4-(6,7-dimethoxy-quinolin-4-yloxy)-3-fluoro-phenyl]-amide] are 7.00 to 8.00 and above 8.00.

The values are drawn from patent US9745283B2, “Uracil derivatives as AXL and c-MET kinase inhibitors” (priority 2011, dated 2017).
